# Read-outs that look alike come from different tables or passages of the source.
# Columns and labels:
# [1] = molecular target: T1, human recombinant PTP1B enzyme (Homo sapiens, UniProt P18031); experiment: Protein tyrosine phosphatase-1B assay (colorimetric kit BML-AK 822); format: biochemical; conditions: for inhibition at 0.3 µM: read-out: % Inhibition at different Inhibitor concentration 0.3 μM; for inhibition at 1 µM: read-out: % Inhibition at different Inhibitor concentration 1 μM; for inhibition at 3 µM: read-out: % Inhibition at different Inhibitor concentration 3 μM; for inhibition at 5 µM: read-out: % Inhibition at different Inhibitor concentration 5 μM; for IC50: from % inhibition at 5 concentrations 0.3-10 μM
# T1 construct: purchased Enzo Life Sciences, USA BML-AK 822
# T1 sequence (P18031 1-322 limits assumed): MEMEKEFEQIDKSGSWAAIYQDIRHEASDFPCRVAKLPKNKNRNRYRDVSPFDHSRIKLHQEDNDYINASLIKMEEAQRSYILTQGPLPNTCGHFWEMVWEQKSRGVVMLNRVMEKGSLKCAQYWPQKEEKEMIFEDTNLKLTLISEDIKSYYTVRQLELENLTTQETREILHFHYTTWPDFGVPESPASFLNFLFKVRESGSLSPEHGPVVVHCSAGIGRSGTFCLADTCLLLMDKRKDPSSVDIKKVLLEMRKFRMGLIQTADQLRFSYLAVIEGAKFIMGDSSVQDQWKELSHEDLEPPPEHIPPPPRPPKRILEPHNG
# Procedure: Assay was done according to the Kit manufacturers protocol, in brief the reaction was carried out in 96 well flat bottomed microtiter plate by the addition of assay buffer, solution of test compounds and diluted PTP1B enzyme. Enzyme reaction was initiated by addition of 50 μl of warmed 2× substrate then incubated the plate at 30° C. for 30 min. After incubation for 30 min. Reaction was terminated by addition of 25 μl of biomol red reagent and mixed thoroughly by repeated pipetting. […] Volumes and dilution of other component were accordingly as instructed in the manual provided in the kit. PTP1B phosphatase acting on the phosphopeptide substrate and release phosphate. The detection of free phosphate released is based on classic Malachite green assay. After adding biomol red to reaction wells after 30 minutes of incubation as described earlier the plate was incubated for another 20 min to develop the colour. Absorbance was recorded at 620 nm. on a microplate reader.
# [2] = Table 5, evaluated at 10 μM concentration, read-out: % Inhibition (PTP-1B)
# [3] = Table 6 dose response, 10 μM, read-out: % Inhibition at different Inhibitor concentration 10 μM
"inhibition at 10 µM [1, 2]",inhibition at 0.3 µM ([1]; Table 6 dose response),inhibition at 1 µM ([1]; Table 6 dose response),inhibition at 3 µM ([1]; Table 6 dose response),inhibition at 5 µM ([1]; Table 6 dose response),"inhibition at 10 µM [1, 3]",IC50 [1],melting point,SMILES
83.8%,3.89%,13.2%,24.1%,36.7%,67.8%,7.12 µM,178 to 180 °C,"COC(=O)c1c(SC)cc(-c2ccc(C)cc2)c2c1-c1cn(-c3ccccc3)nc1CC2 [compound 5, methyl 8-(methylthio)-2-phenyl-6-p-tolyl-4,5-dihydro-2H-benzo[e]indazole-9-carboxylate]"
76.9%,0.5%,11.2%,16.2%,28.8%,62.3%,8.12 µM,182 to 184 °C,"COC(=O)c1c(SC)cc(-c2cccc3ccccc23)c2c1-c1cn(-c3ccccc3)nc1CC2 [compound 6, methyl 8-(methylthio)-6-(naphthalen-1-yl)-2-phenyl-4,5-dihydro-2H-benzo[e]indazole-9-carboxylate]"

# Source: patent US9096539B2, “Substituted 4,5-dihydro-2H-benzo[e]indazole-9-carboxylates for the treatment of diabetes and related disorders” (Council of Scientific & Industrial Research, priority 2012, dated 2015)
